We go through four molecules from patent US20070264679A1, “Method for analyzing the activity of lipoxygenase using a water-soluble substrate” (Chungnam National University Industry Collaboration …, priority 2006, published 2007).

One series has as its target T1, lipoxygenase (Glycine max, UniProt P08170).
T1 sequence (P08170 1-839): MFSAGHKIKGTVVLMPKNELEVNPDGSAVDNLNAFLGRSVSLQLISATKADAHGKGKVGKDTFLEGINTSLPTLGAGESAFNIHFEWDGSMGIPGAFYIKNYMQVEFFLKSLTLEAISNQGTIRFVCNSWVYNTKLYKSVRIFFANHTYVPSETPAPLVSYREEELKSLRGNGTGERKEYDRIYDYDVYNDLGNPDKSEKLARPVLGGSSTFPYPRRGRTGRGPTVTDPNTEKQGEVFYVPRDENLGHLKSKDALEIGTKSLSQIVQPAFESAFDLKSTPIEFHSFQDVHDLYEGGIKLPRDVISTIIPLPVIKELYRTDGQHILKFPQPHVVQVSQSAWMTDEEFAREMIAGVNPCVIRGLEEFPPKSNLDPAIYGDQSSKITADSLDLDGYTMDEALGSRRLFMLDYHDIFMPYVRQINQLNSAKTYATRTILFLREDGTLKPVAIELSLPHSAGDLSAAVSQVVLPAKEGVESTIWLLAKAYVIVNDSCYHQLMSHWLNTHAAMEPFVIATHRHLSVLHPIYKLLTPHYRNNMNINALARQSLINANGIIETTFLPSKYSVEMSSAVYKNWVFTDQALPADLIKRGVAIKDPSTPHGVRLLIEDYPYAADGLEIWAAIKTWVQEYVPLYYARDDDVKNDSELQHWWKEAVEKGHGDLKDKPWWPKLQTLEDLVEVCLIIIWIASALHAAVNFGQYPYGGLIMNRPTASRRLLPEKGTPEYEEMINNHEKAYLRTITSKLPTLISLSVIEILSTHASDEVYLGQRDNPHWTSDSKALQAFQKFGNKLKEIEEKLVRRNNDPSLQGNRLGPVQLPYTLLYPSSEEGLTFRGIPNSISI
The conditions noted are these: Perez-Gilabert et al. 1998; cited from earlier work.

A further series deals with T2, Reticulocyte LOX (Oryctolagus cuniculus, UniProt P12530).
T2 construct: purchased Biomol Inc. (Plymouth Meeting, Pa., USA)
T2 sequence (P12530 1-663): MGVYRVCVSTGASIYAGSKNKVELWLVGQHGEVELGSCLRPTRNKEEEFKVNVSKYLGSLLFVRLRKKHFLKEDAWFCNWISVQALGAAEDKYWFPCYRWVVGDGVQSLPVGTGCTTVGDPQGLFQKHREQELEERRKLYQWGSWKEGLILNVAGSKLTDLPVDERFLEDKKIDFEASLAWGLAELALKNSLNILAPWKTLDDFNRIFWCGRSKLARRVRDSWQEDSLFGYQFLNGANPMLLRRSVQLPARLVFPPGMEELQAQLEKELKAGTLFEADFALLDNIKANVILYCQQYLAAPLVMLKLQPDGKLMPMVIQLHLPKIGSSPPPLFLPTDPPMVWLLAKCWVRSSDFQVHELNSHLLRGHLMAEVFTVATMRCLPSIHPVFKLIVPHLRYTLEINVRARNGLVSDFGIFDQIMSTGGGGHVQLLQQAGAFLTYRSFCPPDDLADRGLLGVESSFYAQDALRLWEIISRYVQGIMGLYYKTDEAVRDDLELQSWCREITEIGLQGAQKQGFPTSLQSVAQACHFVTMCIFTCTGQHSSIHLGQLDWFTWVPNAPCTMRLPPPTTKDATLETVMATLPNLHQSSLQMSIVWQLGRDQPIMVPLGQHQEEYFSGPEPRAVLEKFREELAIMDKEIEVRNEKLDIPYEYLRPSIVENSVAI
Briefly: Kinetics of oxygenation of linoleoylated substrates by reticulocyte LOX. Type of series: biochemical, Rabbit. As to conditions: reticulocyte LOX 8.2 units/ml, 50 mM phosphate buffer pH 7.4, 25° C. From the text: Data were expressed as means ±S.D. of results from at least three independent experiments.

Series [1] deals with T3, soybean LOX-1 (Glycine max, UniProt P08170).
T3 construct: purchased Sigma-Aldrich Corp (St. Louis, Mo., USA) lipoxidase Type I-B
T3 sequence (P08170 1-839): T1 sequence (P08170 1-839)
Briefly: Kinetics of oxygenation of arachidonic acid or arachidonoyl-lysophospholipids by soybean LOX-1. Type of series: biochemical. As to conditions: soybean LOX-1 2.5 units/ml; for Vm: 50 mM borax buffer pH 9.0, unit = one nanomole conjugated diene per min. The protocol: (§1) Activities of various LOXs were monitored by measuring the increase in absorbance at 234 nm due to the formation of hydroperoxide (ε234=25,000 M^−1 cm^−1) at 25° C. as described before (Smith et al, J. Biol. Chem. 247 (1972) 1038-1047). One unit is defined as the amount of LOXs that can produce one nanomole of conjugated diene per min. The reaction mixture (500 μl) included reticulocyte LOX (2 units/ml) in 50 mM phosphate buffer (pH 7.4), porcine leukocyte LOX (1 unit/ml) in 100 mM phosphate buffer (pH 7.5) containing 5 mM EDTA and 0.03% Tween 20, or soybean LOX-1 (2.5 units/ml) in 50 mM borax buffer (pH 9.0) at 25° C. The reactions were started by including each substrate (100 μM) into the above reaction mixture.
(§2) Reticulocyte LOX (2 units/ml), leukocyte LOX (1 units/ml) or soybean LOX-1 (2.5 units/ml) was incubated with each arachidonoyl derivative substrate of various concentrations as described above. The values of kinetic parameters were obtained according to Lineweaver Burke plot analyses as described before (Barroso et al, J. Chromatogr. B. Analyt. Technol. Biomed. Life. Sci. 814 (2005) 21-28).

The target in series [2] is T4, Rabbit reticulocyte 15-lipoxygenase (reticulocyte LOX) (Oryctolagus cuniculus, UniProt P12530).
T4 construct: purchased Biomol Inc. (Plymouth Meeting, Pa., USA)
T4 sequence (P12530 1-663): T2 sequence (P12530 1-663)
Briefly: Oxygenation of arachidonoyl lysophospholipids by reticulocyte LOX. Format: biochemical. As to conditions: reticulocyte LOX 2 units/ml, 50 mM phosphate buffer pH 7.4. The protocol:
as §1, §2
It is noteworthy that the efficacy of arachidonoyl-lysoPC as a substrate for leukocyte LOX was approximately 10-fold greater than that of arachidonic acid. In an additional study, the oxygenation of arachidonoyl-lysoPC or arachidonoyl-lysoPA by reticulocyte LOX was examined. […]

The target of series [3] is T5, Leukocyte 12-lipoxygenase (leukocyte LOX) (Sus scrofa, UniProt P16469).
T5 construct: purchased Cayman Chemical Co. (Ann Arbor, Mich., USA)
T5 sequence (P16469 1-663): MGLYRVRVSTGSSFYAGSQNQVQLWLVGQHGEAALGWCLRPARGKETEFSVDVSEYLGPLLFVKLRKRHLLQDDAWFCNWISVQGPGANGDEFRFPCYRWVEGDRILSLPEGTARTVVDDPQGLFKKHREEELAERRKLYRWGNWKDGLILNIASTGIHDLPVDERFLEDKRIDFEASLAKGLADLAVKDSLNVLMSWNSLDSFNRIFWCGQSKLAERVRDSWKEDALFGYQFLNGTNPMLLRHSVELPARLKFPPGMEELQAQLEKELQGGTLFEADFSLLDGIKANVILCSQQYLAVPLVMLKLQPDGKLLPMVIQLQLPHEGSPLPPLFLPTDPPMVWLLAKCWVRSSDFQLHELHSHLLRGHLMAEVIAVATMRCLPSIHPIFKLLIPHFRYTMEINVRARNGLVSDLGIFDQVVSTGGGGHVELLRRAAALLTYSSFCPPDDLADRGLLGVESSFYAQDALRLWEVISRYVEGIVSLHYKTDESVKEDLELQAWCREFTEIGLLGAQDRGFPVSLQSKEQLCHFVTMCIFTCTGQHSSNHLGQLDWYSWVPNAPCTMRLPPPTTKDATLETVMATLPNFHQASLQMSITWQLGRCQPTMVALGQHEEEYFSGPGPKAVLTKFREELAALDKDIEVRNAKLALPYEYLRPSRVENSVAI
Briefly: Kinetics of oxygenation of arachidonic acid or arachidonoyl-lysophospholipids by leukocyte LOX. The conditions noted are these: leukocyte LOX 1 unit/ml, 100 mM phosphate buffer pH 7.5, 5 mM EDTA; for Vm: 0.03% Tween 20. Format: biochemical, porcine. As to the method:
as §1, §2

For another series, the target named is T6, Porcine leukocyte LOX (Sus scrofa, UniProt P16469).
T6 construct: purchased Cayman Chemical Co. (Ann Arbor, Mich., USA)
T6 sequence (P16469 1-663): T5 sequence (P16469 1-663)
Briefly: Kinetics of oxygenation of docosahexaenoyl-lysoPC or docosahexaenoic acid by leukocyte LOX. Format: biochemical. As to conditions: porcine leukocyte LOX 2 units/ml, 100 mM phosphate buffer pH 7.4, 5 mM EDTA. As to the method: Porcine leukocyte LOX (2 units/ml) was incubated with each substrate docosahexaenoyl-lysoPC or docosahexaenoic acid of various concentrations in 500 μl of 100 mM phosphate buffer (pH 7.4) containing 5 mM EDTA and 0.03% Tween 20 at 25° C.

Series [4] concerns the target T3, soybean LOX-1. Briefly: Kinetics of oxygenation of docosahexaenoic acid derivatives by soybean LOX-1. The conditions noted are these: soybean LOX-1 2.5 units/ml, 50 mM borax buffer pH 9.0, 25° C. Format: biochemical. As to the method: (§3) Soybean LOX-1 (2.5 units/ml) was incubated with docosahexaenoyl-lysoPC, didocosahexaenoyl-lysoPC or docosahexaenoic acid of various concentrations in 500 μl of 50 mM borax buffer (pH 9.0) at 25° C. Values were expressed as means ±S.D. of results from at least three independent experiments.

Substrate in series [5]: CCCCC/C=C\C/C=C\C/C=C\C/C=C\CCCC(=O)O
Briefly: Kinetics of oxygenation of arachidonic acid or arachidonoyl-lysophospholipids by soybean LOX-1. Type of series: biochemical. The conditions noted are these: other: soybean LOX-1 2.5 units/ml, 50 mM borax buffer pH 9.0, 25° C. As to the method:
as §1, §2

Substrate in series [6]: CC/C=C\C/C=C\C/C=C\C/C=C\C/C=C\C/C=C\CCC(=O)O
Briefly: Kinetics of oxygenation of docosahexaenoic acid derivatives by soybean LOX-1. Type of series: biochemical. The conditions noted are these: other: soybean LOX-1 2.5 units/ml, 50 mM borax buffer pH 9.0, 25° C. As to the method: as §3

For `CCCCC/C=C\C/C=C\CCCCCCCC(=O)OC[C@H](COP(=O)([O-])OCC[N+](C)(C)C)OC(=O)CCCCCCC/C=C\C/C=C\CCCCC` [Dilinoleoyl-PC, Dilinoleoyl phosphatidylcholine], the “lipoxygenation rate relative to linoleic acid (times slower)” value at lipoxygenase is given as “about 4 times”. Moreover, the Vm at Reticulocyte LOX is recorded as 646 ± 20 units/mg. Further, the Michaelis constant (Km) on Reticulocyte LOX (substrate 3-100 μM) is 71.7 ± 6.9 µM.
Consider `CCCCC/C=C\C/C=C\C/C=C\C/C=C\CCCC(=O)OCC(O)COP(=O)(O)O` (stereo not shown) [Arachidonoyl-lysoPA, 1-arachidonoyl lysophosphatidic acid], for which the Km is 15.4 µM at soybean LOX-1 [1] (50 mM borax buffer pH 9.0, 25° C.) and 8.6 µM in series [3] (0.03% Tween 20, 25° C.). In addition, the Vm at soybean LOX-1 [1] is listed as 147.8 ± 2.3 units/μg; at soybean LOX-1 [1] (listed as arachidonoyl-lysoPA), 147.8 units/μg; in [3] it was 33.5 ± 2.9 units/mg; in series [3] (listed as arachidonoyl-lysoPA) it was 33.5 units/mg. In addition, the “Vm/Km value in reticulocyte LOX-catalyzed oxygenation compared with arachidonic acid” value in series [2] was “somewhat greater than that of arachidonic acid”.
Consider `CC/C=C\C/C=C\C/C=C\C/C=C\C/C=C\C/C=C\CCC(=O)OCC(O)COP(=O)([O-])OCC[N+](C)(C)C` (stereo not shown) [Docosahexaenoyl-lysoPC, 1-docosahexenoyl lysophosphatidylcholine], for which the Vm on Porcine leukocyte LOX (0.03% Tween 20) was 77.2 ± 2.8 units/mg; on soybean LOX-1 [4], 104.2 ± 5.2 units/μg. The Michaelis-Menten constant (Km) at Porcine leukocyte LOX (0.03% Tween 20, 25° C.) was 3.4 ± 1.8 µM; on soybean LOX-1 [4] it was 2200 ± 600 nM.

B1: soybean LOX-1 (Glycine max) (protein)
chain: T1 sequence (P08170 1-839)
notes: purchased Sigma-Aldrich Corp (St. Louis, Mo., USA) lipoxidase Type I-B
For B1, in series [5], the Km came to 12.4 µM, the maximum rate (Vmax) was found to be 92200 nmol/min/mg and the Vmax/Km turned out to be 7.4e+06 µL/min/mg. Moreover, in [6], the Km stood at 16.8 ± 1.4 µM and the Vmax is 178000 nmol/min/mg.
